Reference: US4401671A, “Treatment of giardiasis and trichomoniasis” (priority 1982, dated 1983)
Converted amounts (≈) assume the structure as drawn. Read-outs that look alike come from different tables or passages of the source.

Assays:
[1] = tested on: Giardia lamblia; details: background statement, human infection; cited from earlier work
[2] = cited from earlier work
[3] = tested on: Trichomonas foetus; assay: In vitro anti-Trichomonas foetus activity (growth inhibition, viable cell count); format: cell-based, T. foetus KV1; details: for IC50: Tritrichomonas foetus, read-out: Anti-T. foetus ED50
[4] = tested on: Giardia lamblia; assay: In vitro anti-Giardia lamblia activity (growth inhibition, viable cell count by hemacytometer); format: cell-based; details: Giardia duodenalis, read-out: Anti-G. lamblia ED50
Experimental: About 1.0-2.0 ml of a nutrient medium, for example, the modified Diamond's TPS medium at pH 7.05, together with about 10% by volume of heat-inactivated serum and about 1% by volume of antibiotic-antimycotic solution is placed in each well of a multiwell plate. To this mixture, an aliquot of a suspension of G. lamblia cells containing about 10^6 organisms is added. Subsequently, each well is inoculated with a known concentration of one of the active compounds. The multiwell plate containing the individual culture samples is incubated under anaerobic conditions at about 37° C. for about 16-24 hrs. The number of viable cells remaining in each well are then counted, such as with a hemacytometer. […]
In each well of a mutliwell plate is placed 1.4 ml of media mix containing Diamond's TPS medium (see Table 2) at pH 7.05, 10% by volume of heat-inactivated fetal bovine serum, and 1% by volume of an antibiotic-antimycotic solution (see Table 3). […] The cells are resuspended in a small volume of the Diamond's medium, counted, and each well inoculated with approximately 10^6 organisms. […] After 24 hours of incubation each well is mixed and counted for viable organisms using a hemacytometer. The percentage of survival is determined by comparing the treated wells to controls treated with dimethylsulfoxide. […]

[5] = tested on: T. vaginalis; assay: anti-T. vaginalis activity; format: cell-based, Trichomonas vaginalis; details: as shown in Table 1

O=C1OCCN1N=Cc1ccc([N+](=O)[O-])o1 [furazolidione]
treatment of giardiasis (in words) [1]: successfully treated
adverse side effects (in words) ([2]; background statement): known to cause adverse side effects

CCN(CC)CCCC(C)Nc1c2ccc(Cl)cc2nc2ccc(OC)cc12 (stereo not drawn) [Atabrine]
treatment of giardiasis (in words) [1]: successfully treated
adverse side effects (in words) ([2]; in vivo): known to cause adverse side effects

O=c1[nH]cc(F)c(=O)[nH]1 [fluorouracil, 5-fluoro-2,4-(1H, 3H)pyrimidenedione]
anti-T. foetus activity (in words) ([3]; 37° C., 24 hours): effective anti-T. foetus agent
IC50 ([3]; 24 h): 3 µg/mL (≈ 23.1 µM)
IC50 [4]: 100 µg/mL (≈ 769 µM)

[O-][n+]1ccnc(O)c1 [emimycin, 2-hydroxypyrazine-4-oxide]
anti-T. vaginalis activity (in words) [5]: active anti-T. vaginalis agents
IC50 ([3]; effective concentration for 50% inhibition of growth, 37° C., 24 hours, T. foetus KV1): < 1 µg/mL
IC50 ([4]; effective concentration for 50% inhibition of growth, 37° C., anaerobic, about 16-24 hrs (24 hours in Example 1)): 22 µg/mL (≈ 196 µM)

Cc1ncc([N+](=O)[O-])n1CCO [Flagyl, metronidazole]
treatment of giardiasis (in words) [1]: successfully treated
adverse side effects (in words) ([2]; in vivo): known to cause adverse side effects
